These results are taken from patent US20250205176A1, “SOLID COMPOSITION CONTAINING FORM II-TYPE CRYSTAL OF REDUCED COENZYME Q10” (KANEKA CORPORATION, priority 2022, published 2025).

This series can be described thus: Reference Example: half-life period and stabilization degree from QH residual rate after 14 days storage. Type of series: physicochemical. Particulars: for Half-life Period: number of days required for the QH residual rate to reach 50%, from storage at 25° C. and 60% RH for 14 days. As for the experimental part:
The reduced coenzyme Q10 Form I crystal (Form I-crystal), the particulate solid composition produced using the reduced coenzyme Q10 Form I crystal in the same manner as in Comparative Example 1 (Form I-stabilized composition), the reduced coenzyme Q10 Form II crystal (Form II-crystal), and the particulate solid composition produced using the reduced coenzyme Q10 Form II crystal in the same manner as in Example 1 (A-1) (Form II-stabilized composition) were stored at 25° C. and 60% RH for 14 days. From the QH residual rate after storage, the half-life period, which is the number of days required for the QH residual rate to reach 50%, and the stabilization degree, which is the ratio of the half-life period of the stabilized composition to the half-life period of each crystal, were determined and shown in Table 17.

With `COc1c(O)c(C)c(C/C=C(\C)CC/C=C(\C)CC/C=C(\C)CC/C=C(\C)CC/C=C(\C)CC/C=C(\C)CC/C=C(\C)CC/C=C(\C)CC/C=C(\C)CCC=C(C)C)c(O)c1OC` [Form I - crystal, reduced coenzyme Q10], the “Half-life Period” value was determined as 14 days.

`COc1c(O)c(C)c(C/C=C(\C)CC/C=C(\C)CC/C=C(\C)CC/C=C(\C)CC/C=C(\C)CC/C=C(\C)CC/C=C(\C)CC/C=C(\C)CC/C=C(\C)CCC=C(C)C)c(O)c1OC` [Form II - crystal, reduced coenzyme Q10]: the “Half-life Period” value is on record as 189 days. For the same compound, the “stability relative to the Form I crystal” value (25° C. and 60% RH) was found to be 14 times.
